# Assays:
# [1] = biological target: High-affinity choline transporter 1 (Rattus norvegicus) (UniProt Q9JMD7); assay: Inhibition of high affinity choline uptake at concentration of 1 uM
# [2] = Enzyme inhibition dissociation constant for choline acetyl transferase (ChAcT) was determined
# [3] = biological target: High-affinity choline transporter 1 (Rattus norvegicus) (UniProt Q9JMD7); assay: Inhibition constant of high-affinity choline uptake
# Chain of High-affinity choline transporter 1 (Rattus norvegicus) (Q9JMD7 whole entry, looked up): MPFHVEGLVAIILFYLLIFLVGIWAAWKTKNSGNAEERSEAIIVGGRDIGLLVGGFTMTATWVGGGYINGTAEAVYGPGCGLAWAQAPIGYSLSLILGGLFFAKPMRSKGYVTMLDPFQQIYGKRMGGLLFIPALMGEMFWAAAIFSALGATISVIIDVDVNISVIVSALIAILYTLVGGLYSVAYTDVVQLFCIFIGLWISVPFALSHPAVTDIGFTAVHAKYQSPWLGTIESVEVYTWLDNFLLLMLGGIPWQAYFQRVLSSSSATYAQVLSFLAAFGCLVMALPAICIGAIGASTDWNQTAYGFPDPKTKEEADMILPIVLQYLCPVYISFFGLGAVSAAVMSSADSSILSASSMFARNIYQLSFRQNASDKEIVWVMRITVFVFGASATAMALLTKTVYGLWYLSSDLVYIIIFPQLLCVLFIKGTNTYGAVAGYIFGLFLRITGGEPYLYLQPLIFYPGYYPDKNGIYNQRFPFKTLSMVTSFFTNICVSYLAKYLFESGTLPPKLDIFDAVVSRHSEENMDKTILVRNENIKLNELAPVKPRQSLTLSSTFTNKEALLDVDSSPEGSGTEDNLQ
Compound,IC50 [1] [µM],Ki [2] [µM],Ki [3] [µM]
"C[N+](C)(C)c1cccc(O)c1O [(2,3-Dihydroxy-phenyl)-trimethyl-ammonium; iodide]",83,15000,60
"C[N+](C)(C)CC(O)c1ccc(O)c(O)c1 (stereo not given) [[2-(3,4-Dihydroxy-phenyl)-2-hydroxy-ethyl]-trimethyl-ammonium; iodide]",221,,130
